Experimental data published in patent US20240335404A1, “SUBSTITUTED ESTERS CONTAINING POLYOLS AND SACCHARIDES FOR TREATING HEPATOTOXICITY AND FATTY LIVER DISEASES” (SINEW PHARMA INC., priority 2015, published 2024).

Legend:
[1] = system: Liver Injuries Induced by APAP; assay: Liver injuries induced by APAP in rats (GSP, AST/ALT, HAI, survival); format: in vivo, SD (Sprague-Dawley) rats; conditions: APAP 2,000 mg/kg; for histological analysis of liver tissue, H&E: FIG. 4
Description: Male SD (Sprague-Dawley) rats weighing 175-280 g were purchased from the National Laboratory Animal Center (NLAC), Taiwan. The study was conducted in accordance with the Guidelines for Conducting Animal Studies of the National Health Research Institute and all rats were placed in the air/humidity controlled environment under the 12 hours of day/12 hours of night cycle and with unlimited water and food supply. During the course of the study, the weights of rats were monitored continuously with normal water supply.
In the normal control (Group 1), animals were not fed with APAP. In the control group of APAP-induced liver injuries (Group 2), animals were fed with a single dose of APAP in the amount of 2,000 mg per kilogram of body weight to induce hepatotoxicity. In the positive control group of treatment with NAC (Group 3), animals were fed with a single dose of APAP in the amount of 2,000 mg per kilogram of body weight to induce hepatotoxicity, and 4 hours later, a 24-hour treatment period by tube feeding was started, including first administration of 140 mg of NAC (per kilogram of body weight) and later administration of 70 mg of NAC (per kilogram of body weight) every 4 hours for five times. In the experimental group (Group 4), animals were fed with a single dose of APAP in the amount of 2,000 mg per kilogram of body weight to induce hepatotoxicity, and 4 hours later, a 24-hour treatment period by tube feeding was started, including six dosing with the ingredients of the present invention every 4 hours, as follows: • (a) (Group 4.1): administration of mannitol at a dose less than or equivalent to 100 mg per person every 4 hours for 24 hours, • (b) (Group 4.2): administration of double dose of mannitol as in Group 4.1 every 4 hours for 24 hours, • (c) (Group 4.3): administration of sucralose at a dose less than or equivalent to 100 mg per person every 4 hours for 24 hours, • (d) (Group 4.4): administration of double dose of sucralose of Group 4.3 every 4 hours for 24 hours, • (e) (Group 4.5): administration of a combination of 0.5 times the dose of mannitol as in Group 4.1 and 0.5 times the dose of sucralose as in Group 4.3 per kilogram of body weight every 4 hours for 24 hours, • (f) (Group 4.6): administration of a combination of the dose of mannitol as in Group 4.1 and the dose of sucralose as in Group 4.3 every 4 hours for 24 hours, • (g) (Group 4.7): administration of a combination of 1.5 times the dose of mannitol as in Group 4.1 and 1.5 times the dose of sucralose as in Group 4.3 every 4 hours for 24 hours, • (h) (Group 4.8): administration of a combination of double dose of mannitol as in Group 4.1 and double dose of sucralose as in Group 4.3 every 4 hours for 24 hours, and • (i) (Group 4.9): first administration of 140 mg of NAC per kilogram of body weight and later administration of a combination of 70 mg of NAC plus double dose of mannitol as in Group 4.1 and double dose of sucralose as in Group 4.3 every 4 hours for five times.
After the 24-hour treatment period, blood was collected from the tail artery of the rats for AST/SLT assays. Subsequently, rats were subjected to GSP tests. Finally, rats were sacrificed and histological analysis was performed.
After completion of the treatments, rats were sacrificed under ether anesthesia, and blood was collected from the tail artery of the rats and placed in a test tube containing EDTA. The plasma was centrifuged at 13,000 at 4° C. for 15 minutes and the isolated plasma was transferred to Eppendorf tubes in aliquots and stored at −80° C.
(§1) Liver damage is quantified by measuring plasma AST and ALT activity. AST and ALT are common indicators of hepatotoxicity and are measured by using the Synchron LXi 725 system (Beckman Instruments, U.S.).
Following scarification of the rats, histological analysis was performed.

CYP2E1 = CYP2E1 (Homo sapiens, UniProt P05181); assay: CYP2E1 inhibitory activity assay in human liver microsomes (CZX to 6-OH-CZX)
Description: After addition of the test sample, the amount of CYP450 isozyme metabolite standard 6-OH-CZX (6-Hydroxy-Chlorzoxazone) is specific used for calculation of the CYP450 isozyme (CYP2E1) inhibition ratio of the test sample by using the amount of 6-OH-CZX of the control group as the baseline.
All samples were tested in triplicate. To determine the percentage inhibition, each test compound was dissolved in 1, 2, 4 μg/mL to three different concentrations. The CYP2E1 activity levels in the presence of the test compounds were compared with the control incubations. The 500-μL reaction mixture, containing 0.5 mg of microsomal protein, was incubated with 320 μM CZX in the presence of 5 mM MgCl2 and 1 mM NADPH in 50 mM phosphate buffer with pH 7.4 at 37° C. for 30 min. The reaction was terminated by ice-cold acetonitrile, and then 4-hydroxyl tolbutamide was added as an internal standard. The organic phase was evaporated to dryness and reconstituted into the mobile phase (methanol:water=1:1) prior to liquid chromatography-tandem mass spectrometry (LC-MS/MS) analysis. An API 3000 triple-quadrupole mass spectrometer equipped with an ion-spray (ESI) source was used to determine 6-OH-CZX in the human liver microsomes. The ESI interface was used in the positive-ion mode. The 6-OH-CZX was monitored at a transition of m/z 284.5→185.9.
The CYP450 isozyme activity levels in the presence of the test compounds were compared with the control incubations.

[2] = system: Liver Injuries Induced by CCl4; assay: Liver injuries induced by CCl4 in mice (GSP, AST/ALT, HAI); format: in vivo
Description: In the normal control, animals were administered with normal saline by intraperitoneal injection. In the control group of CCl4 induced liver injuries, animals were intraperitoneally injected with 10 ml/kg CCl4 (40% in corn oil) to induce hepatotoxicity. In the experimental group, animals were intraperitoneally injected with 10 ml/kg CCl4 (40% in corn oil) to induce hepatotoxicity, and 4 hours later, different ingredients of the present invention were administered by tube feeding. Blood was collected from the mice before administration with the ingredients of the present invention or at 24 hours after administration with the ingredients of the present invention for AST/ALT assays. Finally, animals were sacrificed at day 2 and blood were collected for AST/ALT assay and histological analysis was performed.
On the other hand, other experimental groups of mice were fed with the ingredients of the present invention for 12 weeks and the mice were subjected to GSP tests.
as §1
Following scarification of the rats, histological analysis was performed. Liver samples were fixed with 10% phosphate-buffered formalin, dehydrated an embedded in paraffin, Sections were prepared in 5 μm thickness and then stained with hematoxylin and eosin and subjected to Periodic acid Schiff stain (PAS). The stained sections were observed under the optic microscope.
After the study was completed, all rats were subjected to GSP test. Rats were i.v. injected with 0.4 g/ml BW galactose solution 0.5 g/kg within 30 seconds and one blood sample was collected at 5, 10, 15, 30, 45 and 60 minutes post injection from the tail vein. Colorimetric galactose dehydrogenase is used to quantify the concentration of galactose and the test concentration ranges from 50 to 1,000 μg/ml. The within-day variation of each concentration is calculated using standard deviation and coefficient of variation (CV) and the maximum allowable coefficient of variation is 10% CV, whereas day-to-day variation is examined by comparing the slope and intercept of calibration curves. The GSP is the blood galactose concentration obtained 60 seconds after stopping the 30-second injection.
All data are represented in mean±standard deviation (SD) and the results are calculated using ANOVA to determine the significance. Statistical Package of the Social Science program (Version 13, SPSS Inc.) is used for calculations followed by post hoc test to examine the least significant difference for multiple comparisons so as to confirm the significant differences between groups and the average difference between groups was significant p<0.05.

[3] = dose less than or equivalent to 100 mg per person (mannitol, sucralose: × 6)
[4] = dose less than or equivalent to 100 mg per person (mannitol, sucralose: × 6), Day 14
[5] = double dose of Group 4.1 / Group 4.3, × 6
[6] = double dose of Group 4.1 / Group 4.3, × 6, Day 14
[7] = CCl4-induced liver injuries, dose less than or equivalent to 100 mg per person

Sequence of CYP2E1 (P05181 whole entry): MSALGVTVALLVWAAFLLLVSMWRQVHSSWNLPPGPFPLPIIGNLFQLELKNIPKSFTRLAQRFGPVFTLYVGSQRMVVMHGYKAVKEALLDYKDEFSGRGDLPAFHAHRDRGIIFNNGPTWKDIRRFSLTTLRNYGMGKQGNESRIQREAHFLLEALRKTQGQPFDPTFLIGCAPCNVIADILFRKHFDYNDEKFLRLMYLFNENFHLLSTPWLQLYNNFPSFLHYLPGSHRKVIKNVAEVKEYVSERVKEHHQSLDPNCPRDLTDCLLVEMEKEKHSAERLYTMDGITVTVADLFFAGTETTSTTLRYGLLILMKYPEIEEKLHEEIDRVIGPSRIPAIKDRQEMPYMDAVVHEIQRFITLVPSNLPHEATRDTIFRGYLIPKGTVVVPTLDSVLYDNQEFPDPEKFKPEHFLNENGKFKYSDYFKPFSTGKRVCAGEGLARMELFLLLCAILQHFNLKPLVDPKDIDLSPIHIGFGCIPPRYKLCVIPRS

Row | SMILES | effect on APAP-induced liver injuries and survival rate [1] | histological analysis of liver tissue, H&E [1] | ALT [1, 3] [IU/L] | AST [1, 3] [IU/L] | GSP [1, 3] [mg/L] | Total HAI score [1, 3] | Survival (Day 14, n/n) [1, 4] | ALT [1, 5] [IU/L] | AST [1, 5] [IU/L] | GSP [1, 5] [mg/L] | Total HAI score [1, 5] | Survival (Day 14, n/n) [1, 6] | P450 2E1 inhibitor activity (CYP2E1) | CYP 2E1 inhibition ratio (%) (CYP2E1; 1 μg/mL) | CYP 2E1 inhibition ratio (%) (CYP2E1; 2 μg/mL) | CYP 2E1 inhibition ratio (%) (CYP2E1; 4 μg/mL) | further results
1 | OC[C@H]1O[C@H](O[C@]2(CCl)O[C@H](CCl)[C@@H](O)[C@@H]2O)[C@H](O)[C@@H](O)[C@H]1Cl [Sucralose] | liver injuries and survival rate can be improved | hepatocytes are relatively intact with visible nucleus and less vacuolization | 154 ± 49 | 331 ± 41 | 332 ± 42 | 4.0 ± 1.0 | 3/3 | 136 ± 48 | 277 ± 78 | 309 ± 54 | 3.0 ± 1.0 | 3/3 | effective as P450 2E1 inhibitors | 25.1 ± 1.4 | 30.2 ± 2.8 | 32.9 ± 4.6 | 
2 | OC[C@@H](O)[C@@H](O)[C@H](O)[C@H](O)CO [Mannitol] | liver injuries and survival rate can be improved | hepatocytes are relatively intact with visible nucleus and less vacuolization | 209 ± 16 | 455 ± 78 | 565 ± 177 | 4.0 ± 0.0 | 1/3 | 166 ± 15 | 300 ± 40 | 354 ± 56 | 4.0 ± 1.0 | 3/3 | effective as P450 2E1 inhibitors | 30.1 ± 2.4 | 34.1 ± 4.1 | 40.3 ± 1.6 | ALT [2, 7]: 77 ± 22 IU/L; AST [2, 7]: 91 ± 28 IU/L; GSP [2, 7]: 290 ± 78 mg/L; Total HAI score [2, 7]: 0.8 ± 0.5; effect on CCl4-induced liver injuries ([2]; mice, CCl4): liver injuries can be improved
